The values below come from patent publication US8580811B2 (Ligand Pharmaceuticals Incorporated, priority 2005, dated 2013).

Where only a bound is given, the exact number is not on record here.

One assay has as its target T1, human AR (Homo sapiens, UniProt P10275).
T1 construct: expressed in transfected cells; host or cells: COS-1 cells
T1 sequence (P10275 1-920): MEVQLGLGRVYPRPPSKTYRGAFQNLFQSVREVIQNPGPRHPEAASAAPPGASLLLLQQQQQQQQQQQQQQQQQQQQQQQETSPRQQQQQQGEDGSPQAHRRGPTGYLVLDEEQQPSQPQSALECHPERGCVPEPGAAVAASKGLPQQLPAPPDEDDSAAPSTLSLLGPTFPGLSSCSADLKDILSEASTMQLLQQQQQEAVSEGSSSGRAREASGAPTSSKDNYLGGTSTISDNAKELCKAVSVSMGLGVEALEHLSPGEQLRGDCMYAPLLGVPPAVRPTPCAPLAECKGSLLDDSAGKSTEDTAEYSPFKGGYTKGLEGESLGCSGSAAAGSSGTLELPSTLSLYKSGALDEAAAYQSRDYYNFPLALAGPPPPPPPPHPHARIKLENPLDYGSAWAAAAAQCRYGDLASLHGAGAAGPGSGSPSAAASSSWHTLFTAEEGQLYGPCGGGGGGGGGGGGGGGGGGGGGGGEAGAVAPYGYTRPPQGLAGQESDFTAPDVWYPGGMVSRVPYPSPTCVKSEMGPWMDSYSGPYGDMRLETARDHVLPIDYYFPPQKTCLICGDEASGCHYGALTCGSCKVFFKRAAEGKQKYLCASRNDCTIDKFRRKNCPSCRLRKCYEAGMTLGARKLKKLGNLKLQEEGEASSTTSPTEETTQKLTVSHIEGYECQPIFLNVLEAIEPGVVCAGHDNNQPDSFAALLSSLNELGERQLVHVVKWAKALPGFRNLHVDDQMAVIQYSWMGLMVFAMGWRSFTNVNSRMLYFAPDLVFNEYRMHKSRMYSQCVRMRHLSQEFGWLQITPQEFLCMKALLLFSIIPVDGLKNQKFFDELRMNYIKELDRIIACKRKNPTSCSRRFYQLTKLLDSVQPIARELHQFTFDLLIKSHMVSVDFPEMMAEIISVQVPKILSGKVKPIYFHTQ
Description: IR Binding Assay: whole cell competitive binding of test compounds against 3H-DHT in COS-1 cells transfected with pRShAR.
Conditions: not given
Here is the method: For the whole cell binding assay, COS-1 cells in 96-well microtiter plates including DMEM-10% FBS were transfected as described above with the following plasmid DNA: pRShAR (2 ng/well), pRS-β-Gal (50 ng/well) and pGEM (48 ng/well). Six hours after transfection, media was removed, the cells were washed with PBS and fresh media was added. The next day, the media was changed to DMEM-serum free to remove any endogenous ligand that might be complexed with the receptor in the cells.
After 24 hours in serum-free media, either a saturation analysis to determine the Kd for tritiated dihydrotestosterone (^3H-DHT) on human AR or a competitive binding assay to evaluate the ability of test compounds to compete with ^3H-DHT for AR was performed. […] For the competitive binding assay, media including 1 nM ^3H-DHT and test compounds in concentrations ranging from 10^−10 to 10^−6 M were added to the cells. Three replicates were used for each sample. After three hours at 37° C., an aliquot of the total binding media at each concentration of ^3H-DHT was removed to estimate the amount of free ^3H-DHT. The remaining media was removed, the cells were washed three times with PBS to remove unbound ligand, and cells were lysed with a Triton X-100-based buffer. The lysates were assayed for amount of bound ^3H-DHT and β-Gal activity using a scintillation counter or spectrophotometer, respectively.
For the saturation analyses, the difference between the total binding and the nonspecific binding, normalized by the β-Gal rate, was defined as specific binding. The specific binding was evaluated by Scatchard analysis to determine the Kd for ^3H-DHT. See e.g., D. Rodbard, “Mathematics and statistics of ligand assays: an illustrated guide” In: J. Langon and J. J. Clapp, eds., Ligand Assay, Masson Publishing U.S.A., Inc., New York, pp. 45-99, (1981), the disclosure of which is herein incorporated by reference. For the competition studies, the data was plotted as the amount of ^3H-DHT (% of control in the absence of test compound) remaining over the range of the dose-response curve for a given compound. […] The Ki values were determined by application of the Cheng-Prusoff equation to the IC50 values, where:
[formula] After correcting for non-specific binding, IC50 values were determined. […] The IC50 value was determined graphically from a log-logit plot of the data. The Ki values were determined by application of the Cheng-Prusoff equation to the IC50 values, the labeled ligand concentration and the Kd of the labeled ligand. see e.g., Cheng, Y. C. and Prusoff, W. H. Biochem. Pharmacol. 22:3099 (1973).
Turning to `CCc1c(C)c2c3c(Cl)cc(=O)[nH]c3ccc2n1CC(O)CO` (centres unmarked) [Compound 297, 9-Chloro-3-(2,3-dihydroxypropyl)-2-ethyl-1-methyl-3,6-dihydro-pyrrolo[3,2-f]-quinolin-7-one], the inhibition constant (Ki) is > 10 nM. The same measure, in the same setting: under `CCc1c(C)c2c3c(C(F)(F)F)cc(=O)[nH]c3ccc2n1CC(O)C(F)(F)F` (racemic) [Compound 247, (±)-2-Ethyl-1-methyl-3-(3,3,3-Trifluoro-2-hydroxy-propyl)-9-trifluoromethyl-3,6-dihydro-pyrrolo[3,2-f]quinolin-7-one] stands < 5 nM; under `CC1CN(CC(F)(F)F)c2ccc3[nH]c(=O)cc(Cl)c3c21` (racemic) [Compound 132, (±)-9-Chloro-1-methyl-3-(2,2,2-trifluoro-ethyl)-1,2,3,6-tetrahydro-pyrrolo[3,2-f]quinolin-7-one], < 5 nM; under `C#CCn1c(C)c(C)c2c3c(C(F)(F)F)cc(=O)[nH]c3ccc21` [Compound 242, 1,2-Dimethyl-3-(prop-2-ynyl)-9-trifluoromethyl-3,6-dihydro-pyrrolo[3,2-f]quinolin-7-one], < 5 nM.

In the case of `Cc1c(-c2ncco2)n(CC(F)(F)F)c2ccc3[nH]c(=O)cc(Cl)c3c12` [Compound 257, 9-Chloro-1-methyl-2-(2-oxazolyl)-3-(2,2,2-trifluoroethyl)-3,6-dihydro-pyrrolo[3,2-f]-quinolin-7-one], the inhibition constant Ki was < 5 nM.

For the molecule `Cc1c(-c2cccnc2)n(CC(F)(F)F)c2ccc3[nH]c(=O)cc(Cl)c3c12` [Compound 253, 9-Chloro-1-methyl-2-(3-pyridyl)-3-(2,2,2-trifluoroethyl)-3,6-dihydro-pyrrolo[3,2-f]-quinolin-7-one], the Ki is > 10 nM. The same measure, in the same setting: under `CCN1c2ccc3[nH]c(=O)cc(Cl)c3c2C(C)C1C` (racemic) [Compound 135, (±)-9-Chloro-1,2-dimethyl-3-ethyl-1,2,3,6-tetrahydro-pyrrolo[3,2-f]quinolin-7-one] stands 5 to 10 nM; under `Cc1c(C)n(C[C@H](O)C(F)(F)F)c2ccc3[nH]c(=O)cc(C(F)(F)F)c3c12` [Compound 245, (−)-1,2-Dimethyl-3-(3,3,3-trifluoro-2-hydroxy-propyl)-9-trifluoromethyl-3,6-dihydro-pyrrolo[3,2-f]-quinolin-7-one], > 10 nM; under `Cc1c(-c2cccc([N+](=O)[O-])c2)n(CC(F)(F)F)c2ccc3[nH]c(=O)cc(Cl)c3c12` [Compound 205, 9-Chloro-1-methyl-2-(3-nitrophenyl)-3-(2,2,2-trifluoroethyl)-3,6-dihydro-pyrrolo[3,2-f]quinolin-7-one], 5 to 10 nM. On the same count and under the same terms, then `Cc1c(C=O)c2c3c(Cl)cc(=O)[nH]c3ccc2n1Cc1ccccc1` [Compound 188, 3-Benzyl-9-chloro-2-methyl-7-oxo-6,7-dihydro-3H-pyrrolo[3,2-f]quinoline-1-carbaldehyde], with < 5 nM; and `Cc1c(-c2ccccn2)n(C[C@H](O)C(F)(F)F)c2ccc3[nH]c(=O)cc(Cl)c3c12` [Compound 275, (S)-9-Chloro-1-methyl-2-(2-pyridyl)-3-(3,3,3-trifluoro-2-hydroxy-propyl)-3,6-dihydro-pyrrolo[3,2-f]quinolin-7-one], with 5 to 10 nM; and `CC1c2c(ccc3[nH]c(=O)cc(Cl)c23)N(CC(F)(F)F)C1c1ccccc1F` (racemic) [Compound 156, (±)-9-Chloro-2-(2-fluorophenyl)-1-methyl-3-(2,2,2-trifluoroethyl)-1,2,3,6-tetrahydro-pyrrolo[3,2-f]quinolin-7-one], with < 5 nM.

For the molecule `O=c1cc(Cl)c2c(ccc3[nH]c4c(c32)CCC4)[nH]1` [Compound 107, 9-Chloro-1,2-trimethylene-3,6-dihydro-pyrrolo[3,2-f]quinolin-7-one], the Ki was > 10 nM. Still for that read-out and setting: under `Cc1c(-c2ccc(C(F)(F)F)cc2)n(CC(F)(F)F)c2ccc3[nH]c(=O)cc(Cl)c3c12` [Compound 202, 9-Chloro-1-methyl-2-(4-trifluoromethylphenyl)-3-(2,2,2-trifluoroethyl)-3,6-dihydro-pyrrolo[3,2-f]-quinolin-7-one] stands > 10 nM; under `CCC1C(C)c2c(ccc3[nH]c(=O)cc(Cl)c23)N1CCC(F)(F)F` (racemic) [Compound 170, (±)-9-Chloro-2-ethyl-1-methyl-3-(3,3,3-trifluoropropyl)-1,2,3,6-tetrahydro-pyrrolo[3,2-f]quinolin-7-one], < 5 nM. The same measure, in the same setting: under `Cc1c(-c2cccc(F)c2)n(CC(F)(F)F)c2ccc3[nH]c(=O)cc(Cl)c3c12` [Compound 251, 9-Chloro-2-(3-fluorophenyl)-1-methyl-3-(2,2,2-trifluoroethyl)-3,6-dihydro-pyrrolo[3,2-f]-quinolin-7-one] stands < 5 nM; under `Cc1c(-c2ccccn2)n(CC(F)(F)C(F)(F)F)c2ccc3[nH]c(=O)cc(Cl)c3c12` [Compound 265, 9-Chloro-1-methyl-3-(2,2,3,3,3-pentafluoropropyl)-2-(2-pyridyl)-3,6-dihydro-pyrrolo[3,2-f]quinolin-7-one], < 5 nM; under `CCC1C(C)c2c(ccc3[nH]c(=O)cc(C(F)(F)F)c23)N1CC(F)(F)Cl` (racemic) [Compound 178, (±)-3-(2-Chloro-2,2-difluoroethyl)-2-ethyl-1-methyl-9-trifluoromethyl-1,2,3,6-tetrahydro-pyrrolo[3,2-f]quinolin-7-one], < 5 nM. The same measure, in the same setting: under `CCc1c(C)c2c3c(Cl)cc(=O)[nH]c3ccc2n1CCC(F)(F)F` [Compound 216, 9-Chloro-2-ethyl-1-methyl-3-(3,3,3-trifluoropropyl)-3,6-dihydro-pyrrolo[3,2-f]quinolin-7-one] stands < 5 nM. For the molecule `CC1c2c(ccc3[nH]c(=O)cc(C(F)(F)F)c23)N(CCCC(F)(F)F)C1C` (racemic) [Compound 182, (±)-1,2-Dimethyl-3-(4,4,4-trifluorobutyl)-9-trifluoromethyl-1,2,3,6-tetrahydro-pyrrolo[3,2-f]quinolin-7-one], the Ki was < 5 nM. Still for that read-out and setting: then `Cc1ccc(-c2c(C)c3c4c(Cl)cc(=O)[nH]c4ccc3n2CC(F)(F)F)cc1` [Compound 204, 9-Chloro-1-methyl-2-(4-methylphenyl)-3-(2,2,2-trifluoroethyl)-3,6-dihydro-pyrrolo[3,2-f]-quinolin-7-one], with < 5 nM; and `CC1c2c(ccc3[nH]c(=O)cc(Cl)c23)N(CC(F)(F)C(F)(F)F)C1c1ccccc1` (racemic) [Compound 171, (±)-9-Chloro-1-methyl-3-(2,2,3,3,3-pentafluoropropyl)-2-phenyl-1,2,3,6-tetrahydro-pyrrolo[3,2-f]quinolin-7-one], with > 10 nM.

The same assay, now with this note: competition with 1 nM 3H-DHT, transfected COS-1 cells, 3 h at 37° C., Cheng-Prusoff from IC50.
In the case of `Cc1c(C)n(CC(O)C(F)(F)F)c2ccc3[nH]c(=O)cc(Cl)c3c12` (racemic) [Compound 279, rac-9-Chloro-1,2-dimethyl-3-(3,3,3-trifluoro-2-hydroxy-propyl)-3,6-dihydro-pyrrolo[3,2-f]-quinolin-7-one], the Ki is < 5 nM.
